The values below come from DBAASP.

As usually defined, the MIC is the least concentration at which growth counts as inhibited. A higher MIC goes with a less susceptible organism.

Values after ≈ are worked out from the molar mass of the structure shown.

Among the test systems are Staphylococcus aureus; Escherichia coli; Bacillus cereus.
Holding throughout (assay): ≥ marks a high value that may be exact or a test limit, other limits are often not marked, values filed in µg/mL are converted to µM
In assay [1] the test system is Pseudomonas aeruginosa ATCC 27853.
The test system of assay [2] is Candida albicans ATCC 90028.
For assay [3], the system named is Staphylococcus aureus ATCC 29213.
In assay [4] the test system is Escherichia coli ATCC 25922.
The subject of assay [5] is Enterococcus faecalis ATCC 29212.

Regarding `CC[C@H](C)[C@H](NC(=O)[C@H](CCCN=C(N)N)NC(=O)[C@@H](N)CCCCN)C(=O)N[C@H](C(=O)N[C@@H](CCC(N)=O)C(=O)N[C@@H](CCCN=C(N)N)C(=O)N[C@@H](CCCCN)C(=O)N[C@@H](CCCCN)C(=O)N[C@@H](CC(=O)O)C(=O)N[C@@H](Cc1ccccc1)C(=O)N[C@@H](CC(C)C)C(=O)N[C@@H](CCCN=C(N)N)C(=O)O)C(C)C` [KRIVQRKKDFLR], the MIC is 40 µM (≈ 63.5 µg/mL) in assay [1], no less than 40 µM in assay [2], 40 µM (≈ 63.5 µg/mL) in assay [3] and 20 µM (≈ 31.7 µg/mL) in assay [4].

Turning to `CC[C@H](C)[C@H](NC(=O)[C@H](CCCN=C(N)N)NC(=O)[C@H](CCC(N)=O)NC(=O)[C@@H](NC(=O)[C@H](CCCCN)NC(=O)[C@H](CCCN=C(N)N)NC(=O)[C@@H](N)CCCCN)C(C)C)C(=O)N[C@@H](CCCCN)C(=O)N[C@@H](CC(=O)O)C(=O)N[C@@H](Cc1ccccc1)C(=O)N[C@@H](CC(C)C)C(=O)N[C@@H](CCCN=C(N)N)C(=O)O` [KRKVQRIKDFLR], the MIC was 2.5 µM (≈ 3.97 µg/mL) in assay [1], 20 µM (≈ 31.7 µg/mL) in assay [2], 10 µM (≈ 15.9 µg/mL) in assay [3] and 1.25 µM (≈ 1.98 µg/mL) in assay [4].

As for `CC(C)C[C@H](NC(=O)[C@H](CCCCN)NC(=O)[C@H](Cc1ccccc1)NC(=O)[C@@H](NC(=O)[C@H](CCCCN)NC(=O)CNC(=O)[C@H](CC(C)C)NC(=O)[C@@H](N)Cc1ccccc1)C(C)C)C(=O)N[C@@H](C)C(=O)N[C@@H](CO)C(=O)N[C@@H](CCCCN)C(=O)N[C@H](C(=O)N[C@@H](Cc1ccccc1)C(=O)N[C@@H](CCCCN)C(=O)N[C@@H](C)C(=O)N[C@H](C(=O)N[C@@H](Cc1ccccc1)C(=O)NCC(=O)N[C@@H](CCCCN)C(=O)N[C@H](C(=O)O)C(C)C)C(C)C)C(C)C` [FLGKVFKLASKVFKAVFGKV], the MIC came to 1.81 µM (≈ 4 µg/mL) against Staphylococcus aureus, 7.23 µM (≈ 16 µg/mL) with Escherichia coli and 3.61 µM (≈ 8 µg/mL) against Bacillus cereus.

In the case of `CC(C)C[C@H](NC(=O)[C@H](CCCCN)NC(=O)[C@H](Cc1ccccc1)NC(=O)[C@@H](NC(=O)[C@@H](NC(=O)[C@H](CCCCN)NC(=O)[C@H](CC(C)C)NC(=O)[C@@H](N)Cc1ccccc1)C(C)C)C(C)C)C(=O)N[C@@H](C)C(=O)N[C@@H](CO)C(=O)N[C@@H](CCCCN)C(=O)N[C@H](C(=O)N[C@@H](Cc1ccccc1)C(=O)NCC(=O)N[C@@H](C)C(=O)N[C@H](C(=O)N[C@@H](Cc1ccccc1)C(=O)NCC(=O)N[C@@H](CCCCN)C(=O)N[C@H](C(=O)O)C(C)C)C(C)C)C(C)C` [FLKVVFKLASKVFGAVFGKV], the MIC with Staphylococcus aureus was found to be 7.32 µM (≈ 16 µg/mL); against Escherichia coli, 58.6 µM (≈ 128 µg/mL); with Bacillus cereus, 7.32 µM (≈ 16 µg/mL).

`CC[C@H](C)[C@H](NC(=O)[C@H](CCCN=C(N)N)NC(=O)[C@H](CCC(N)=O)NC(=O)[C@@H](NC(=O)[C@@H](NC(=O)[C@H](CCCN=C(N)N)NC(=O)[C@@H](N)CCCCN)[C@@H](C)CC)C(C)C)C(=O)N[C@@H](CCCCN)C(=O)N[C@@H](C)C(=O)N[C@@H](Cc1ccccc1)C(=O)N[C@@H](CC(C)C)C(=O)N[C@@H](CCCN=C(N)N)C(=O)O` [KRIVQRIKAFLR]: the MIC in assay [1] is 1.25 µM (≈ 1.91 µg/mL); in assay [2], 5 µM (≈ 7.64 µg/mL); in assay [3] it was 2.5 µM (≈ 3.82 µg/mL); in assay [4], 1.25 µM (≈ 1.91 µg/mL).

For the molecule `CC[C@H](C)[C@H](NC(=O)[C@H](CO)NC(=O)[C@H](C)NC(=O)[C@H](CCCCN)NC(=O)[C@H](CC(C)C)NC(=O)[C@@H](NC(=O)[C@@H](NC(=O)[C@@H]1CCCN1C(=O)[C@@H](NC(=O)[C@@H](NC(=O)[C@@H](N)CCCCN)[C@@H](C)O)C(C)C)C(C)C)C(C)C)C(=O)N[C@@H](CCCCN)C(=O)N[C@H](C(=O)N[C@@H](CO)C(=O)N[C@@H](CO)C(=O)N[C@@H](C)C(=O)NCC(=O)N[C@@H](Cc1ccccc1)C(=O)NCC(=O)N[C@@H](Cc1ccccc1)C(=O)O)C(C)C` [KTVPVVLKASIKVSSAGFGF], the MIC is greater than 126 µM in the assay on Escherichia coli and no less than 126 µM in the assay on Bacillus cereus.

On to `CC[C@H](C)[C@H](NC(=O)CN)C(=O)N[C@@H](CCSC)C(=O)N[C@@H](CC(=O)O)C(=O)N[C@H](C(=O)N[C@H](C(=O)N[C@@H](CCCCN)C(=O)N[C@@H](CC(N)=O)C(=O)N[C@@H](C)C(=O)N[C@@H](C)C(=O)N[C@@H](CCCCN)C(=O)N[C@@H](CC(=O)O)C(=O)N[C@@H](CC(C)C)C(=O)N[C@@H](C)C(=O)NCC(=O)N[C@@H](CCC(N)=O)C(=O)N[C@@H](CC(C)C)C(=O)N[C@@H](CC(=O)O)C(=O)N[C@@H](CCCCN)C(=O)N[C@@H](CC(C)C)C(=O)N[C@@H](CCCCN)C(=O)N[C@H]1CSSC[C@@H](C(=O)O)NC(=O)CNC(=O)[C@H]([C@@H](C)O)NC(=O)[C@H]([C@@H](C)CC)NC(=O)[C@H](CCCN=C(N)N)NC1=O)C(C)C)[C@@H](C)O` [GIMDTVKNAAKDLAGQLDKLKCRITGC], for which the figures for the MIC in assay [2] and in assay [4] were no less than 130 µM and 23 µM (≈ 65.8 µg/mL), respectively.

Consider `CC(C)[C@H](NC(=O)[C@H](CO)NC(=O)[C@@H](NC(=O)[C@H](CCCCN)NC(=O)[C@H](C)NC(=O)[C@@H](NC(=O)[C@@H](NC(=O)[C@H](CCCCN)NC(=O)[C@@H](NC(=O)[C@H](Cc1ccccc1)NC(=O)[C@H](CO)NC(=O)[C@H](CS)NC(=O)[C@@H]1CCCN1C(=O)[C@H](Cc1ccc(O)cc1)NC(=O)[C@H](CO)NC(=O)CNC(=O)[C@H](CCCCN)NC(=O)CNC(=O)[C@@H](NC(=O)[C@@H](N)CCCCN)C(C)C)C(C)C)C(C)C)C(C)C)C(C)C)C(=O)O` [KVGKGSYPCSFVKVVAKVSV], for which the values for the MIC in the assay on Escherichia coli and in the assay on Bacillus cereus were greater than 123 µM and no less than 123 µM, respectively.

Consider `CC(C)[C@H](N)C(=O)N[C@H](C(=O)N[C@@H](Cc1ccccc1)C(=O)N[C@@H](CCCN=C(N)N)C(=O)N[C@H](C(=O)N[C@@H](C)C(=O)N[C@@H](CO)C(=O)N[C@@H](CCCCN)C(=O)N[C@H](C(=O)N[C@@H](Cc1ccccc1)C(=O)N1CCC[C@H]1C(=O)N[C@@H](C)C(=O)N[C@H](C(=O)N[C@@H](Cc1ccc(O)cc1)C(=O)N[C@@H](CS)C(=O)N[C@H](C(=O)N[C@H](C(=O)N[C@@H](CO)C(=O)N[C@@H](CCCCN)C(=O)N[C@@H](CCCCN)C(=O)O)C(C)C)[C@@H](C)O)C(C)C)C(C)C)C(C)C)C(C)C` [VVFRVASKVFPAVYCTVSKK], for which the results for the MIC in the assay on Escherichia coli and in the assay with Bacillus cereus were 57.4 µM (≈ 128 µg/mL) and no less than 115 µM, respectively.

`CC[C@H](C)[C@H](NC(=O)[C@@H](NC(=O)[C@H](C)NC(=O)[C@H](C)NC(=O)[C@@H](NC(=O)[C@H](CCCN=C(N)N)NC(=O)[C@H](CO)NC(=O)[C@H](CO)NC(=O)[C@@H](NC(=O)[C@@H](NC(=O)[C@H](CC(C)C)NC(=O)[C@@H](NC(=O)[C@H](Cc1ccccc1)NC(=O)[C@@H]1CCCN1C(=O)[C@H](CO)NC(=O)[C@@H](N)CCCCN)C(C)C)C(C)C)C(C)C)C(C)C)C(C)C)C(=O)N[C@@H](CCCCN)C(=O)N[C@@H](CO)C(=O)N[C@@H](CC(C)C)C(=O)N1CCC[C@H]1C(=O)O` [KSPFVLVVSSRVAAVIKSLP]: the MIC against Escherichia coli is greater than 122 µM; in the assay on Bacillus cereus, no less than 122 µM.

In the case of `CC[C@H](C)[C@H](NC(=O)[C@H](Cc1ccccc1)NC(=O)CN)C(=O)NCC(=O)N[C@@H](CCCCN)C(=O)N[C@@H](CC(C)C)C(=O)N[C@@H](C)C(=O)N[C@@H](CO)C(=O)N[C@@H](CCCCN)C(=O)N[C@H](C(=O)N[C@H](C(=O)N1CCC[C@H]1C(=O)N[C@@H](CO)C(=O)N[C@H](C(=O)N[C@@H](Cc1ccc(O)cc1)C(=O)N[C@@H](CS)C(=O)N[C@@H](CCCCN)C(=O)N[C@H](C(=O)N[C@H](C(=O)NCC(=O)O)[C@@H](C)O)C(C)C)C(C)C)C(C)C)C(C)C` [GFIGKLASKVVPSVYCKVTG], the values for the MIC against Escherichia coli and against Bacillus cereus were 62.3 µM (≈ 128 µg/mL) and no less than 125 µM, respectively.

With `CSCC[C@H](NC(=O)[C@H](CCCN=C(N)N)NC(=O)[C@H](Cc1c[nH]c2ccccc12)NC(=O)[C@H](CCC(N)=O)NC(=O)[C@H](Cc1c[nH]c2ccccc12)NC(=O)[C@H](CCCN=C(N)N)NC(=O)[C@H](CCCN=C(N)N)NC(=O)[C@H](C)NC(=O)[C@H](CCCCN)NC(=O)[C@@H](N)Cc1ccccc1)C(=O)O` [FKARRWQWRM], the minimum inhibitory concentration (MIC) was 34.2 µM (≈ 50.1 µg/mL) in assay [4] and 68.4 µM (≈ 100 µg/mL) in assay [5].

As to `CC[C@H](C)[C@H](NC(=O)[C@H](C)NC(=O)CNC(=O)[C@H](Cc1ccccc1)NC(=O)[C@@H](NC(=O)[C@H](CO)NC(=O)[C@@H]1CCCN1C(=O)[C@@H](NC(=O)[C@@H](NC(=O)[C@H](CCCCN)NC(=O)[C@H](CO)NC(=O)[C@H](C)NC(=O)[C@H](CC(C)C)NC(=O)[C@H](CO)NC(=O)CNC(=O)[C@@H](NC(=O)[C@@H](N)Cc1ccccc1)C(C)C)C(C)C)C(C)C)C(C)C)C(=O)N[C@@H](CCCCN)C(=O)N[C@H](C(=O)N[C@@H](CCCCN)C(=O)O)[C@@H](C)O` [FVGSLASKVVPSVFGAIKTK], the MIC with Escherichia coli was greater than 126 µM; in the assay on Bacillus cereus it was no less than 126 µM.

For the molecule `CC(=O)N[C@@H](CC(C)C)C(=O)N[C@@H](CCCCN)C(=O)N[C@@H](CCCCN)C(=O)N[C@@H](CC(C)C)C(=O)N[C@@H](CC(C)C)C(=O)N[C@@H](CCCCN)C(=O)N[C@@H](CC(C)C)C(=O)N[C@@H](CC(C)C)C(=O)N[C@@H](CCCCN)C(=O)N[C@@H](CCCCN)C(=O)N[C@@H](CC(C)C)C(=O)N1CCC[C@H]1C(=O)N[C@@H](CCCCN)C(=O)N[C@@H](CC(C)C)C(N)=O` [LKKLLKLLKKLPKL], the figures for the MIC in assay [3] and in assay [4] were 10 µM (≈ 17.2 µg/mL) and 5 µM (≈ 8.59 µg/mL), respectively.

As for `CC(C)C[C@H](NC(=O)CNC(=O)[C@H](Cc1ccccc1)NC(=O)[C@@H](NC(=O)[C@H](CO)NC(=O)[C@@H]1CCCN1C(=O)[C@@H](NC(=O)[C@@H](NC(=O)[C@H](CCCCN)NC(=O)[C@H](CO)NC(=O)[C@H](C)NC(=O)[C@H](CC(C)C)NC(=O)[C@H](CCCCN)NC(=O)[C@H](Cc1ccccc1)NC(=O)[C@@H](NC(=O)[C@H](C)NC(=O)[C@@H]1CCCN1C(=O)[C@@H](N)CC(C)C)C(C)C)C(C)C)C(C)C)C(C)C)C(=O)N[C@H](C(=O)N[C@@H](CCCCN)C(=O)O)C(C)C` [LPAVFKLASKVVPSVFGLVK], the MIC was greater than 122 µM in the assay on Escherichia coli and no less than 122 µM against Bacillus cereus.
